Measured values as given in PubChem BioAssay AID2060910 (Molecular Pharmacology Branch, DTP, NCI, 2025).
Values belong to the molecule of their own block, whether it stands above or below them.

Test system: 242566-281-R-J2-PDC complex spheroid viability
Test: Anticancer human tumor 242566-281-R-J2-PDC patient-derived pancreatic carcinoma cell line growth inhibition [RAS]
Settings: for IC50: curve of first compound; for viability, T/C: stronger effect = lower value
Text: RAS pathway inhibitors in Combinations in Complex Spheroids
A high-throughput screen of multi-cell type tumor spheroids was designed to identify active combinations of RAS pathway inhibitors and targeted small molecules. Complex spheroids include a stromal component modeled by human endothelial cells (HUVEC) and fibroblasts modeled by human mesenchymal stem cells (MSCs). The concentration ranges selected for each drug and investigational agent were based upon clinically achievable concentrations if the clinical Cmax of the agent was known.
Compounds. The drugs and investigational agents: abemaciclib (NSC768073), cobimetinib (NSC768068), divarasib (GDC6063, NSC841802), docetaxel (NSC628503), GDC-1971 (RLY-1971, NSC841576), gemcitabine (NSC613327), inavolisib (NSC800729), ipatasertib (NSC767898), KB-0742 (NSC834161), MRTX-1133 (NSC836407), osimertinib (NSC779217), RMC-4630 (NSC839698), RMC-6236 (NSC851965), RMC-6291 (NSC852671), Ro-3306 (NSC812927), sapanisertib (NSC764658), SN-38 (NSC673596), staurosporine (NSC755774), SY5609 (NSC837396), and tovorafenib (DAY101, NSC766906), were obtained from the National Cancer Institute (NCI) Developmental Therapeutics Program Chemical Repository. The FDA-approved anticancer drug set is available from the NCI Developmental Therapeutics Program. […] The stock solutions were prepared in dimethyl sulfoxide (DMSO, Sigma-Aldrich, St. Louis, MO, cat. D2650) at 800-fold the tested concentration and stored at -70 degrees C prior to their use. All drugs and investigational agents were tested over a range starting from a high concentration at or near the clinical Cmax and decreasing in half-log increments. If the clinical Cmax for an agent had not been determined, the highest concentration tested was 10 microM.
Cell Culture. All cells were maintained in an incubator at 37 degrees C and 5% CO2 with 95% humidity. The PDC lines were cultured according to standard operating procedures established by the NCI PDMR. All PDCs were thawed and cultured in Matrigel-coated flasks prepared with a working solution of 1X Ham's F-12 nutrient mix, without supplementation (Invitrogen, Waltham, MA, cat. 11765054), 100 U/mL penicillin-streptomycin (Invitrogen, cat. 15140122), and 2.5% Matrigel (Corning Inc., Corning, NY, cat. 354248) for the first three passages. The 362531-283-R-J2-PDC and 782815-120-R-J1-PDC lines were cultured in 6C/Colon 1B media, which includes advanced DMEM/F-12 (Thermo Fisher Scientific, cat. 12634028), 10 mM HEPES (Thermo Fisher Scientific, cat. 15630080), 1X GlutaMAX supplement (Thermo Fisher Scientific, cat. 35050061), 0.1 mg/mL primocin (InvivoGen, San Diego, CA, cat. ant-pm-2), 10% defined fetal bovine serum, heat inactivated (HyClone Laboratories Inc., Logan, UT, cat. SH30070.03HI), 50% L-WRN conditioned media (ATCC, cat. CRL-3276), 1.25 mM N-Acetyl-L-cysteine (Sigma-Aldrich, cat. A9165), 10 mM nicotinamide (Sigma-Aldrich, cat. N0636), 1X B-27 supplement (Thermo Fisher Scientific, cat. 17504044), 1X N-2 supplement (Thermo Fisher Scientific, cat. 17502048), 50 ng/mL human EGF (Thermo Fisher Scientific, cat. PHG0311), and 10 microM Y-27632 dihydrochloride (Tocris Bioscience, cat. 1254). The K12877-001-R-J1-PDC line was cultured in 6I media, which includes all 6C/Colon 1B media plus 10 ng/mL human FGF-10 (PeproTech, cat. 100-26), 1 ng/mL human FGF-2 (PeproTech, cat. 100-18B), 1 µM prostaglandin E2 (Tocris Bioscience, cat. 2296), […] hydrocortisone (Sigma-Aldrich, cat. H4001), and […] bovine insulin (Sigma-Aldrich, cat. I6634). The K86415-001-R-J1-PDC line was cultured in 6D media, which includes all 6C/Colon 1B media components minus the L-WRN conditioned media. The 485176-168-R4-J1-PDC was cultured in PANC media, which includes all 6C/Colon 1B media plus 100 ng/mL human FGF-10 (PeproTech, cat. 100-26), 500 nM SB-431542 (Selleckchem, cat. S1067), and 10 nM gastrin (Tocris Bioscience, cat. 3006). […]

[1] = second compound 0.0316 µM, first compound 0.00316 µM
[2] = second compound 0.0316 µM, first compound 0.01 µM
[3] = second compound 0.0316 µM, first compound 0.0316 µM
[4] = second compound 0.0316 µM, first compound 0.1 µM
[5] = second compound 0.0316 µM, first compound 0.316 µM
[6] = second compound 0.0316 µM, first compound 1 µM
[7] = second compound 0.1 µM, first compound 0.00316 µM
[8] = second compound 0.1 µM, first compound 0.01 µM
[9] = second compound 0.1 µM, first compound 0.0316 µM
[10] = second compound 0.1 µM, first compound 0.1 µM
[11] = second compound 0.1 µM, first compound 0.316 µM
[12] = second compound 0.1 µM, first compound 1 µM
[13] = second compound 0.316 µM, first compound 0.00316 µM
[14] = second compound 0.316 µM, first compound 0.01 µM
[15] = second compound 0.316 µM, first compound 0.0316 µM
[16] = second compound 0.316 µM, first compound 0.1 µM
[17] = second compound 0.316 µM, first compound 0.316 µM
[18] = second compound 0.316 µM, first compound 1 µM
[19] = second compound 1 µM, first compound 0.00316 µM
[20] = second compound 1 µM, first compound 0.01 µM
[21] = second compound 1 µM, first compound 0.0316 µM
[22] = second compound 1 µM, first compound 0.1 µM
[23] = second compound 1 µM, first compound 0.316 µM
[24] = second compound 1 µM, first compound 1 µM
[25] = second compound 3.16 µM, first compound 0.00316 µM
[26] = second compound 3.16 µM, first compound 0.01 µM
[27] = second compound 3.16 µM, first compound 0.0316 µM
[28] = second compound 3.16 µM, first compound 0.1 µM
[29] = second compound 3.16 µM, first compound 0.316 µM
[30] = second compound 3.16 µM, first compound 1 µM
[31] = second compound 10 µM, first compound 0.00316 µM
[32] = second compound 10 µM, first compound 0.01 µM
[33] = second compound 10 µM, first compound 0.0316 µM
[34] = second compound 10 µM, first compound 0.1 µM
[35] = second compound 10 µM, first compound 0.316 µM
[36] = second compound 10 µM, first compound 1 µM
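Note: spheroids exposed to compound for 7 days before readout.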
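Throughout, for viability, T/C: 100% = DMSO vehicle control wells.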

IC50 (second compound 0.0316 µM): 0.114 µM
IC50 (second compound 0.1 µM): 0.0708 µM
IC50 (second compound 0.316 µM): 0.0881 µM
IC50 (second compound 1 µM): 0.0252 µM
IC50 (second compound 3.16 µM): 0.0222 µM
IC50 (second compound 10 µM): 0.0161 µM
SMILES: C=CC(=O)Nc1cc(Nc2nccc(-c3cn(C)c4ccccc34)n2)c(OC)cc1N(C)CCN(C)C + C#Cc1c(F)ccc2cc(O)cc(-c3ncc4c(N5CC6CCC(C5)N6)nc(OCC56CCCN5CC(F)C6)nc4c3F)c12
viability, T/C [1]: 81.2%
viability, T/C [2]: 115%
viability, T/C [3]: 80.8%
viability, T/C [4]: 52.9%
viability, T/C [5]: 43.1%
viability, T/C [6]: 37.9%
viability, T/C [7]: 80.3%
viability, T/C [8]: 85.2%
viability, T/C [9]: 60.7%
viability, T/C [10]: 46.9%
viability, T/C [11]: 41.3%
viability, T/C [12]: 35.2%
viability, T/C [13]: 77.6%
viability, T/C [14]: 75.2%
viability, T/C [15]: 66%
viability, T/C [16]: 47.1%
viability, T/C [17]: 40.7%
viability, T/C [18]: 35.3%
viability, T/C [19]: 68.3%
viability, T/C [20]: 60.2%
viability, T/C [21]: 46.7%
viability, T/C [22]: 42.1%
viability, T/C [23]: 36.4%
viability, T/C [24]: 38.5%
viability, T/C [25]: 60.2%
viability, T/C [26]: 58.6%
viability, T/C [27]: 48%
viability, T/C [28]: 41%
viability, T/C [29]: 36.1%
viability, T/C [30]: 37.7%
viability, T/C [31]: 57.1%
viability, T/C [32]: 57.1%
viability, T/C [33]: 44.6%
viability, T/C [34]: 40.1%
viability, T/C [35]: 39.8%
viability, T/C [36]: 36.7%

IC50 (second compound 0.0316 µM): 0.0833 µM
IC50 (second compound 0.1 µM): 0.056 µM
IC50 (second compound 0.316 µM): 0.0252 µM
IC50 (second compound 1 µM): 0.00845 µM
IC50 (second compound 3.16 µM): 0.00418 µM
IC50 (second compound 10 µM): < 0.00316 µM
SMILES: O=C(c1ccc(F)c(F)c1Nc1ccc(I)cc1F)N1CC(O)([C@@H]2CCCCN2)C1 + C#Cc1c(F)ccc2cc(O)cc(-c3ncc4c(N5CC6CCC(C5)N6)nc(OCC56CCCN5CC(F)C6)nc4c3F)c12
viability, T/C [1]: 89.3%
viability, T/C [2]: 90.4%
viability, T/C [3]: 69.1%
viability, T/C [4]: 47.9%
viability, T/C [5]: 38.6%
viability, T/C [6]: 44.2%
viability, T/C [7]: 76.1%
viability, T/C [8]: 73.6%
viability, T/C [9]: 57.7%
viability, T/C [10]: 42%
viability, T/C [11]: 40.9%
viability, T/C [12]: 38.5%
viability, T/C [13]: 73%
viability, T/C [14]: 59.7%
viability, T/C [15]: 49.9%
viability, T/C [16]: 37.3%
viability, T/C [17]: 32.2%
viability, T/C [18]: 39.9%
viability, T/C [19]: 60.1%
viability, T/C [20]: 49.5%
viability, T/C [21]: 44.8%
viability, T/C [22]: 30.4%
viability, T/C [23]: 35.1%
viability, T/C [24]: 38.6%
viability, T/C [25]: 50.8%
viability, T/C [26]: 48.6%
viability, T/C [27]: 34%
viability, T/C [28]: 29.4%
viability, T/C [29]: 34.9%
viability, T/C [30]: 38.2%
viability, T/C [31]: 52.6%
viability, T/C [32]: 41.3%
viability, T/C [33]: 34.1%
viability, T/C [34]: 37%
viability, T/C [35]: 36.8%
viability, T/C [36]: 37.5%
